Patent US5304560A, “Quinazoline derivatives and their preparation” (Fujisawa Pharmaceutical Co., Ltd., priority 1990, dated 1994)
pIC50: −log10 of the molar value.

How the values were obtained:
DA2 receptor = molecular target: T1, DA2 receptor (Rattus norvegicus, UniProt P61169); test: Dopamine receptor (DA2 receptor) binding assay; conditions: [3H]spiperone 0.2 nM; rat striatum 160 μg/ml; 37° C., 10 minutes, pH 7.4
T1 construct: The final tissue concentration of rat striatum was 160 μg/ml; from tissue; host or cells: rat striatum (printed 'stratum'), washed homogenate
Protocol: Test 1 [Dopamine receptor (DA2 receptor) binding assay]
The affinity for DA2 receptor of a Test Compound was determined following in vitro receptor binding assays.
Male rats weighing 150-300 g were decapitated and the stratum were dissected from their brains. The tissue was homogenized in 30 volumes of buffer which consisted of 50 mM Tris-HCl (pH 7.4 at 25° C.), 120 mM sodium chloride, 5 mM potassium chloride, 1 mM calcium chloride, 1 mM magnesium chloride, 10 μM pargirine, and 0.1% ascorbic acid. The homogenate was centrifuged at 50,000 g for 15 minutes. The pellet was resuspended in 30 volumes of the buffer. The tissue suspension was centrifuged and suspended again in the same way.
Incubation tubes received 100 μl of [phenyl-4-^3 H]spiperone, 100 μl of the Test Compound and 0.8 ml of tissue suspension during binding assays. The concentration of [phenyl-4-^3 H]spiperone was 0.2 nM. The final tissue concentration of rat striatum was 160 μg/ml. […] The filters were counted by liquid scintillation counter.
Specific binding of the [^3 H]spiperone was determined in the presence of 1 μM butaclamol. The IC50 value of the Test Compound was calculated from the data of [^3 H]spiperone binding in the presence of 10^-9 M, 10^-8 M, 10^-7 M and 10^-6 M Test Compound.

[1] = test system: reserpine-induced DOPA accumulation; test: Inhibition of reserpine-induced DOPA accumulation; assay type: in vivo, Male SD rats; conditions: dose 3.2 mg/kg, oral, 2 hours before sacrifice; reserpine 1 mg/kg s.c. 17-19 hours before; striatum DOPA
Protocol: Test 2 [Inhibition of reserpine-induced DOPA accumulation]
Male SD rats weighing 300-400 g were used in this test. Rats were pretreated with reserpine (1 mg/kg, S.C.) 17-19 hours before sacrifice and then fasted. Test Compound was given orally to the rats 2 hours before sacrifice. [m-Hydroxybenzylhydrazine (100 mg/kg, i.p.) was given 30 minutes before sacrifice.] Each rat was exposed to microwaves using a head-focus microwave applicator for 1.5 seconds. The whole brain was removed and further separated into the striatum.
DOPA was determined as follows; the striatum was homogenized in 9 volumes of 0.1N perchloric acid solution (0.4% EDTA·2Na). The homogenate was centrifuged at 10,000 rpm for 1 minutes. The supernatant was applied to high performance liquid chromatography.

[2] = test system: spontaneous hypertensive rats; test: Hypotensive effect on spontaneous hypertensive rats; assay type: in vivo, rat; conditions: dose 1 mg/kg, oral, in 0.5% methylcellulose; 15 to 25-week-old male spontaneous hypertensive rats
Protocol: Test 3 [Hypotensive effect on spontaneous hypertensive rats]
15 to 25-Week-old male spontaneous hypertensive rats with mean arterial blood pressure of about 160-200 mmHg, weighing 300-350 g, were used. The animals were cannulated in the left femoral artery and the mean blood pressure and heart rate were measured with a pressure-transducer. The animals were deprived of food for about 18 hours before oral dosing. The Test Compound was suspended in 0.5% methylcellulose, and given orally.

T1 sequence (P61169 whole entry): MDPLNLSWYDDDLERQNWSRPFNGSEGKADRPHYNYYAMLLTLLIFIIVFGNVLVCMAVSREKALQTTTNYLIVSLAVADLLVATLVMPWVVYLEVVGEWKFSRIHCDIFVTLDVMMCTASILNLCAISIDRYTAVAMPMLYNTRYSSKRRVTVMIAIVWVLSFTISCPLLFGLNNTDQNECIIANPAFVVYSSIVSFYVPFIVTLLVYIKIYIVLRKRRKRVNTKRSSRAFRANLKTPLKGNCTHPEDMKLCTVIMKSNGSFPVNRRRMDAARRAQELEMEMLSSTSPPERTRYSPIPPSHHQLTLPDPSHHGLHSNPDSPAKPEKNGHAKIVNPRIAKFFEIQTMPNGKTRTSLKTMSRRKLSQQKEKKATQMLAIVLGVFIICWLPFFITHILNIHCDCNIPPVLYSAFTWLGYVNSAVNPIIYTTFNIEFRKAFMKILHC

Br.O=c1[nH]c(=O)n(CCCCN2CC=C(c3ccccc3)CC2)c2cc(O)ccc12 [Compound A, 1-[4-(4-phenyl-1,2,3,6-tetrahydropyridin-1-yl)butyl]-7-hydroxy-2,4(1H,3H)-quinazolinedione hydrobromide]
pIC50 (DA2 receptor): 8.13
Inhibition (%) [1]: 10%
Maximum decrease of blood pressure (%) [2]: 19%
